The NIST ThermoML archive (doi:10.1016/j.fluid.2015.04.022)
Numbers after ± are expanded uncertainties.

Details: 298.2 K, 101.33 kPa, Liquid; for viscosity: Falling or rolling sphere viscometry; for mass density: Vibrating tube method

Structure (SMILES)	viscosity	mass density
C=CC(C)(O)CCC=C(C)C (centres undefined) [3,7-dimethyl-1,6-octadien-3-ol]	4.57 ± 0.13 mPa·s	857.38 ± 0.28 kg/m3
C=C(C)[C@H]1CC=C(C)CC1 [(R)-1-methyl-4-(1-methylethenyl)cyclohexene]	0.92 ± 0.12 mPa·s	841.35 ± 0.36 kg/m3
